Test results taken from patent publication US8329711B2, “Pyridone-substituted-dihydropyrazolopyrimidinone derivative” (MSD K.K., priority 2007, dated 2012).

Legend:
Wee1 kinase = target: T1, Wee1 kinase (Homo sapiens, UniProt P30291); assay: Wee1 kinase-inhibitory effect (33P-ATP filter assay with GST-tagged Wee1); type: biochemical; details: purified GST-Wee1, Poly(Lys,Tyr) substrate, 10 μM ATP, 30° C. for 30 minutes; read-out: Weel-Inhibitory Effect (IC50)
T1 construct: made in house; host or cells: Sf9 insect cells (recombinant baculovirus)
T1 sequence (P30291 whole entry): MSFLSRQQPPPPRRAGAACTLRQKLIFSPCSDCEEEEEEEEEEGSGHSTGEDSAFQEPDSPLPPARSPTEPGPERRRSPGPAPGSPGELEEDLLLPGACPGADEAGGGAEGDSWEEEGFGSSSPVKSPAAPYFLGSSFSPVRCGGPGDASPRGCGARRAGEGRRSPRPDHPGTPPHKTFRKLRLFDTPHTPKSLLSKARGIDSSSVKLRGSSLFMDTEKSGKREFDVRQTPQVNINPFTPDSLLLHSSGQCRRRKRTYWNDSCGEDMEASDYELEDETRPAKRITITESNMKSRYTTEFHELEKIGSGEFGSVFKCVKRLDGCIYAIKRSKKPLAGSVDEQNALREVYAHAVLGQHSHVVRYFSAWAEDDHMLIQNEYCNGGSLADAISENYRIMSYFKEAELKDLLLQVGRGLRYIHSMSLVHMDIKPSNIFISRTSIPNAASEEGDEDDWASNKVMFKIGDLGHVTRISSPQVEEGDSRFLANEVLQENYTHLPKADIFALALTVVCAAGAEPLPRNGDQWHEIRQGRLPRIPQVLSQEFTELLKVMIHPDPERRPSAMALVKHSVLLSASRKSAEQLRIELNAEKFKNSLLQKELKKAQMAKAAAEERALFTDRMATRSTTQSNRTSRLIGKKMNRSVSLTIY
Excerpt: Pharmacological Test 1 (Wee1 Kinase-Inhibitory Effect)
(1) Purification of Wee1 Kinase:
A cDNA of Wee1 kinase with glutathion-S-transferase (GST) fused at the amino terminal thereof was inserted into a baculovirus expression vector to construct a recombinant baculovirus, with which cells of an insect cell line Sf9 were infected for high expression therein. The infected cells were collected and solubilized, and then the GST-tagged Wee1 kinase protein was adsorbed by a glutathion column, and eluted from the column with glutathion, and the active fraction was desalted in a desalting column to give a purified enzyme.
(2) Determination of Wee1 Kinase Activity:
In determination of the Wee1 kinase activity, a synthetic peptide, Poly(Lys,Tyr) Hydrobromide (Lys:Tyr (4:1)) bought from Sigma was used as the substrate.
The amount of the reaction liquid was 21.1 μL; and the composition of the reaction buffer was 50 mM Tris-HCl buffer (pH 7.4)/10 mM magnesium chloride/1 mM dithiothreitol. The purified Wee1 kinase, 2.5 μg of the substrate peptide, 10 μM of non-labeled adenosine triphosphate (ATP) and 1 μCi of [γ-^33P]-labeled ATP (2500 Ci/mmol or more) were added to it, and reacted at 30° C. for 30 minutes. Next, 10 μL of 350 mM phosphate buffer was added to the reaction system to stop the reaction. The substrate peptide was adsorbed by a P81 paper filter 96-well plate, then washed a few times with 130 mM phosphate buffer, and its radioactivity was counted with a liquid scintillation counter. The [γ-^33P]-labeled ATP was bought from Amersham Bioscience.
To add a test compound to the reaction system, the compound was diluted with dimethyl sulfoxide (DMSO) to prepare a series of dilutions. 1.1 μL of each dilution was added to the reaction system. As a control, 1.1 μL of DMSO was added to the reaction system.

[1] = test system: Cdc2 (Cdk1) tyrosine 15 phosphorylation in WiDr cells; assay: Cdc2 (Cdk1) tyrosine 15-phosphorylation-inhibitory effect in WiDr cells, gemcitabine-treated (ELISA); type: cell-based; details: Homo sapiens, 100 nM gemcitabine 24 hours, then test compound with nocodazole 8 hours, read-out: Cdc2-Y15 Phosphorylation-Inhibitory Effect (WiDr, +gemcitabine) (EC50)
Excerpt: Pharmacological Test 2 (Method of Determining Drug Potency with Cells (Cdc2 (Cdk1) Tyrosine 15-Phosphorylation-Inhibitory Effect))
Fetal bovine serum (FBS) was gotten from Morgate; media RPMI1640 and DMEM were from Invitrogen; camptothecin was from Sigma; gemcitabine was from Nippon Eli Lilly; nocodazole and protease inhibitor cocktail were from Sigma; rabbit anti-Cdc2 antibody and mouse anti-Cdc2 antibody were from Santa Cruz Biotechnology; rabbit anti-tyrosine 15-phosphorylated Cdc2 antibody and horseradish peroxidase-labeled anti-mouse IgG antibody were from Cell Signaling Technology; sure blue reserve TMB peroxidase substrate was from Kirkegaard and Perry Laboratories.
Human non-small cell lung cancer cells (NCI-H1299) and human colon cancer cells (WiDr) were gotten from American Type Culture Collection (ATCC).
In the method of using WiDr cells, the cells were suspended in a medium of 10% FBS-added DMEM, and the cell suspension was applied to a 96-well Nunclondelta-processed plastic plate in an amount of 2000 cells/100 μL/well, in which the cells were incubated overnight in 5% CO2-95% air at 37° C. Gemcitabine was dissolved in PBS, and diluted with a medium of 10% FBS-added DMEM, and then this was applied to the plate on which the cells had been previously sowed, in an amount of 50 μL/well in such a manner that the final concentration of gemcitabine could be 100 nM. Then, the cells were incubated for 24 hours at 37° C. in 5% CO2-95% air. A test compound was stepwise diluted with DMSO, then diluted with 1200 nM nocodazole-containing, 10% FBS-added DMEM, and applied to the plate on which the […] cells had been sowed, in an amount of 50 μL/well. The cells were incubated for 8 hours at 37° C. in 5% CO2-95% air, then the culture was removed, and a cytolytic buffer was added to the plate in an amount of 100 μL/well, shaken at 4° C. for 2 hours, then frozen at −80° C., and thawed to give a cell solution. […] Cdc2 was determined through ELISA as follows: A rabbit anti-Cdc2 antibody solution, which had been diluted 200-fold with 50 mM carbonate-bicarbonate buffer (pH 9.6), was applied to a 96-well maxisorp plastic plate in an amount of 50 μL/well, and statically kept overnight at 4° C. so as to fix the antibody on the plate. […] Then, 1 M hydrochloric acid was added to it in an amount of 100 μL/well to stop the reaction, and this was analyzed through colorimetry. Tyrosine 15-phosphorylated Cdc2 was determined through ELISA as follows: A rabbit anti-tyrosine 15-phosphorylated Cdc2 antibody solution, which had been diluted 100-fold with 50 mM carbonate-bicarbonate buffer (pH 9.6), was applied to a 96-well maxisorp plastic plate in an amount of 50 μL/well, and statically kept overnight at 4° C. so as to fix the antibody on the plate. […]

| IC50 (Wee1 kinase) [nM] | EC50 [1] [nM] | SMILES |
| --- | --- | --- |
| 7.2 | 86 | C=CCn1c(=O)c2cnc(Nc3ccc(N4CCN(C)CC4)cc3)nc2n1-c1cc(F)cc(-n2ccccc2=O)c1 [Example 4, 2-allyl-1-[3-fluoro-5-(2-oxopyridin-1(2H)-yl)phenyl]-6-{[4-(4-methylpiperazin-1-yl)phenyl]amino}-1,2-dihydro-3H-pyrazolo[3,4-d]pyrimidin-3-one] |
| 6.9 |  | C=CCn1c(=O)c2cnc(Nc3cccc(C4CCN(C)CC4)c3)nc2n1-c1cccc(-n2ccccc2=O)n1 [Example 27, 6′-(2-Allyl-6-{[3-(1-methylpiperizin-4-yl)phenyl]amino}-3-oxo-2,3-dihydro-1H-pyrazolo[3,4-d]pyrimidin-1-yl)-2H-1,2′-bipyridin-2-one] |
| 12.6 |  | CN1Cc2cc(Nc3ncc4c(=O)n(C)n(-c5cccc(-n6ccccc6=O)n5)c4n3)ccc2C2(CC2)C1 [Example 38, 6′-{2-Methyl-6-[(2′-methyl-2′,3′-dihydro-1′H-spiro[cyclopropane-1,4′-isoquinolin]-7′-yl)amino]-3-oxo-2,3-dihydro-1H-pyrazolo[3,4-d]pyrimidin-1-yl}-2H-1,2′-bipyridin-2-one] |
| 18 | 110 | C=CCn1c(=O)c2cnc(Nc3ccc(N4CC[C@@H](N(C)C)C4)cc3)nc2n1-c1cccc(-n2ccccc2=O)n1 [Example 2, 6′-[2-allyl-6-({4-[(3R)-3-(dimethylamino)pyrrolidin-1-yl]phenyl}amino)-3-oxo-2,3-dihydro-1H-pyrazolo[3,4-d]pyrimidin-1-yl]-2H-1,2′-bipyridin-2-one] |
| 6.5 |  | C=CCn1c(=O)c2cnc(Nc3ccc(OC)c(CO)c3)nc2n1-c1cccc(-n2ccccc2=O)n1 [Example 29, 6′-(2-Allyl-6-{[3-(hydroxymethyl)-4-methoxyphenyl]amino}-3-oxo-2,3-dihydro-1H-pyrazolo[3,4-d]pyrimidin-1-yl)-2H-1,2′-bipyridin-2-one] |
| 4.4 |  | C#CCn1c(=O)c2cnc(Nc3ccc4c(c3)CN(C)CC4)nc2n1-c1cccc(-n2ccccc2=O)n1 [Example 42, 6′-{6-[(2-Methyl-1,2,3,4-tetrahydroisoquinolin-7-yl)amino]-3-oxo-2-(2-propynyl)-2,3-dihydro-1H-pyrazolo[3,4-d]pyrimidin-1-yl}-2H-1,2′-bipyridin-2-one] |
| 10 | 92 | C=CCn1c(=O)c2cnc(Nc3ccc(N4CCN(C)CC4)c(C)c3)nc2n1-c1cccc(-n2ccccc2=O)n1 [Example 11, 6′-(2-Allyl-6-{[3-methyl-4-(4-methylpiperazin-1-yl)phenyl]amino}-3-oxo-2,3-dihydro-1H-pyrazolo[3,4-d]pyrimidin-1-yl)-2H-1,2′-bipyridin-2-one] |
| 16 |  | C=CCn1c(=O)c2cnc(Nc3ccc(N4CC[C@H](N(C)C)C4)cc3)nc2n1-c1cccc(-n2ccccc2=O)n1 [Example 3, 6′-[2-allyl-6-({4-[(3S)-3-(dimethylamino)pyrrolidin-1-yl]phenyl}amino)-3-oxo-2,3-dihydro-1H-pyrazolo[3,4-d]pyrimidin-1-yl]-2H-1,2′-bipyridin-2-one] |
| 6.9 |  | C=CCn1c(=O)c2cnc(Nc3ccc(N4CC(F)(F)C4)cc3)nc2n1-c1cccc(-n2ccccc2=O)n1 [Example 17, 6′-(2-Allyl-6-{[4-(3,3-difluoroazetidin-1-yl)phenyl]amino}-3-oxo-2,3-dihydro-1H-pyrazolo[3,4-d]pyrimidin-1-yl)-2H-1,2′-bipyridin-2-one] |
| 24 | 170 | C=CCn1c(=O)c2cnc(Nc3ccc(C4CCN(C)CC4)cc3)nc2n1-c1cccc(-n2ccccc2=O)c1 [Example 8] |
| 20.6 |  | CC(C)n1c(=O)c2cnc(Nc3ccc4c(c3)CN(C)CC43CC3)nc2n1-c1cccc(-n2ccccc2=O)n1 [Example 39, 6′-{2-Isopropyl-6-[(2′-methyl-2′,3′-dihydro-1′H-spiro[cyclopropane-1,4′-isoquinolin]-7′-yl)amino)-3-oxo-2,3-dihydro-1H-pyrazolo[3,4-d]pyrimidin-1-yl]-2H-1,2′-bipyridin-2-one] |
| 11 |  | C=CCn1c(=O)c2cnc(Nc3ccc(C4CCN(C)CC4)cc3)nc2n1-c1cccc(-n2ccccc2=O)n1 [Example 9, 6′-(2-Allyl-6-{[4-(1-methylpiperidin-4-yl)phenyl]amino}-3-oxo-2,3-dihydro-1H-pyrazolo[3,4-d]pyrimidin-1-yl)-2H-1,2′-bipyridin-2-one] |
